From patent US20090028798A1, “METHOD FOR DETERMINING REDOX STATUS OF A TISSUE” (Government of the USA, represented by the Secretary, …, priority 2005, published 2009)
Marks after values point to notes of the source that are not given here.

Columns and labels:
[1] = Decay rate of nitroxyl contrast agent by in vivo 700 MHz EPR spectroscopy with surface coil (EPRS); parameters: species or system C3H mice; details: linear part 7.5-20 min, mean ± SD
Description: (§1) Female C3H mice were supplied by the Frederick Cancer Research Center, Animal Production (Frederick, Md.). Animals, received at six weeks of age, were housed five per cage in climate controlled circadian rhythm-adjusted rooms and were allowed food and water ad libitum. Experiments were carried out in compliance with the Guide for the Care and Use of Laboratory Animal Resources (1996), National Research Council, and approved by the National Cancer Institute Animal Care and Use Committee. Experiments were performed within 4 weeks of their arrival at the facility. Their body weight measured before the experiments was in the range 25-28 g. A squamous cell carcinoma was implanted and grown on the right hind leg for a week.
In vivo EPR spectroscopic measurement of the nitroxyl probe were obtained. Mice were anesthetized and placed on special mouse holder and fixed with adhesive tapes. The single loop surface coil (7.3 mm i.d.) was placed on the normal or the tumor leg. EPR signal was measured by CW EPR at 700 MHz. EPR conditions were as follows: microwave frequency=700 MHz, microwave power=10 mW, field modulation frequency=13.5 kHz, field modulation amplitude=0.3 Gauss, time constant=0.03 s, sweep width=60 Gauss, scan time=8 s. The center line of the triplet was repeatedly obtained every 20 s for 20 min. […]

[2] = Decay rate of nitroxyl contrast agent by 300 MHz CW EPR imaging (EPRI); format: in vivo, C3H mice; details: 1.8 μmol/g b.w. i.v., mean ± SD
Description: as §1
Mice were anesthetized by isoflurane (1.5%) in medical air (700 mL/min). Both tumor and normal legs were placed on special mouse holder and fixed with adhesive tapes on the divider between both legs. […]
(§2) The EPRI and MRI data were analyzed using the ImageJ software package (a public domain Java image processing program inspired by NIH Image that can be extended by plug-ins, http://rsb.info.nih.gov/ij/). T1 and T2 mappings were calculated using a plug-in (MRI analysis calculator, Karl Schmidt, HypX Laboratory, Brigham and Women's Hospital) available in ImageJ.
A time course of CW EPR imaging after injection of a nitroxyl contrast agent was determined. […]

[3] = Decay rate of nitroxyl contrast agent by 4.7 T SPGR T1-weighted MRI; format: in vivo, C3H mice; details: 1.5 μmol/g b.w. i.v., mean ± SD
Description: as §1
MRI and pulse sequence measurements were also obtained. MRI measurements were performed at 4.7 T controlled with ParaVision®3.0.1 (Bruker BioSpin MRI GmbH, Rheinstetten, Germany). […]
as §2, with “ImageJ. […]” for “ImageJ.”

[4] = Relaxation time and relaxivity of nitroxyl contrast agents compared with Gd-DTPA; format: physicochemical
Source text: The present invention is predicated on the difference in reducing capability and provides a method of determining the redox status of a region of interest in an animal tissue, such as a tumor. By determining the redox status of a tumor it is possible to not only diagnose a tumor due to its enhanced reduction of intracellular nitroxide contrast agent, but also to determine appropriate radiation treatment fields spatially to deliver therapeutic doses of radiation, and to determine appropriate timing sequences after the administration of a nitroxide contrast agent such that the maximum difference between normal and tumor tissue with respect to the radioprotective form of the nitroxide is present in the normal tissue, thereby limiting collateral damage to the normal tissue. The T1-contrast afforded by the nitroxide class of compounds, by virtue of their paramagnetic relaxivity which is in the range of 0.2 (mM s)−1 makes it possible to use standard MRI scanners to obtain the redox information in the inventive method. Typical relaxivity and relaxation times are shown for various nitroxyl contrast agents compared with a standard contrast agent, Gd-DTPA, in Table 1. […] Without being bound to any particular theory, it is believed that the T1 relaxation of protons could be affected by paramagnetic electron spin. Therefore, a change of MRI contrast before and after administration of a nitroxyl spin probe (i.e., a nitroxide contrast agent) should reflect the amount of nitroxyl in addition to providing anatomical mapping simultaneously. Such anatomical mapping provides the ability to diagnose the existence of a tumor, determine the status of a tumor, determine borders of a radiation treatment field, determine appropriate timing and dosage for radiation treatment, as well as determining the efficacy of radiation and other forms of cancer treatment.

[5] = Nitroxyl radical decay rate in tissues, from change in MRI contrast over time; format: in vivo, mice; details: for Decay Rate: MRI, mean ± SD
Description: In the inventive method, the amount of reduced nitroxyl contrast agent (i.e., hydroxylamine) in the animal tissue is determined. This determination can be made using any suitable method. For example, MRI contrast changes and the difference in concentration of a nitroxyl contrast agent, such as 3CP, show linearity in low concentration level (i.e., below 1.5 mM). To perform T1 and T2 mapping, spin echo images can be obtained using a multi-slice multi-echo (MSME) sequence. For instance, a time sequence of the total number of SPGR images may be determined. The images can then be averaged and each image may be divided by the averaged initial image. Semi-logarithmic values of the averaged image intensity in a given region of interest can be plotted versus time after injection. The change in intensity can be determined at one or more time points after injection of a nitroxyl contrast agent. For example, changes in intensity may be made every 10 s, 20 s, 30, 40 s, 50 s, or every 1, 5, 7, 10, 15, 20 minutes, or any integer in between, after injection of a nitroxyl contrast agent. A decay rate can be obtained from the linear part of the slope after peak by the least squares method. A sample calculation of a decay rate using nitroxyl contrast agent 3CP is as follows: The spoiled gradient echo (SPGR) image intensity Mt at time t after nitroxyl contrast agent injection can be calculated using the equation:
Mt=M0×[1−EXP(−TR/T1t)]×EXP(−TE/T2)×{sin α/[1−cos α×EXP(−TR/T1t)]}.
In the above equation, MO is proton density, and a is flip angle. Tissue (or sample) T1 can change with particular time t (min.) (T1t) depending on the concentration of the 3CP (Ct). T1t[…]1/R1t and R1t=1/T1i+r1×Ct, where R1t is T1 relaxation […] t, the relaxivity r1 of 3CP is 0.17 mM^−1s-1, T1i is the initial T1 base line (intrinsic tissue T1). Ct (mM), which is the first concentration of 3CP at particular time t (min.), is calculated by assuming first order decay as indicated by the equation Ct=Cmax×EXP([…]), where ktrue is the given decay rate. Logarithmic values of the intensity change from the baseline (ie. ΔM % t=(Mt/Mi−1)×100 or ΔMt=Mt−Mi), can be plotted with time t. Mi is the intrinsic signal intensity of the tissue (or sample) calculated as Ct=0. The decay constant kMRI can be obtained from the slopes of the plots ΔM % t and ΔMt by least square fit.
Typical decay rates, determined by a change in intensity over time, are shown in Table 1 and FIG. 1 for nitroxyl contrast agents Tempol, Carbamoyl-PROXYL, Carboxyl-PROXYL in normal tissue, tumor, blood, and left and right kidney tissues. These decay rates may then be used to determine the redox status of the tissue. When a decay rate is calculated pixel-wise, redox mapping can be obtained. That is, regions showing a faster rate of decay correspond to hypoxic regions.

SMILES | Normal Leg Decay Rate ([1]; normal leg) [min⁻¹] | Tumor Leg Decay Rate ([1]; squamous cell carcinoma leg) | Normal Leg Decay Rate ([2]; normal leg) [min⁻¹] | Tumor Leg Decay Rate ([2]; squamous cell carcinoma leg) [min⁻¹] | Normal Leg Decay Rate ([3]; normal leg) [min⁻¹] | Tumor Leg Decay Rate ([3]; squamous cell carcinoma leg) | Relaxivity [4] [mM⁻¹ s⁻¹] | relaxivity r1 ([4]; value used in sample decay-rate calculation) [mM⁻¹ s⁻¹] | Decay Rate ([5]; Blood) [min⁻¹] | Decay Rate ([5]; Left Kidney) [min⁻¹] | Decay Rate ([5]; Normal Leg) [min⁻¹] | Decay Rate ([5]; Right Kidney) [min⁻¹] | Decay Rate ([5]; Tumor Leg) | rate of decay, tumor versus normal tissue ([5]; in vivo MRI, FIG. 2)
CC1(C)CC(C(N)=O)C(C)(C)N1[O] (stereo not drawn) [Carbamoyl-PROXYL, 3-carbamoyl-2,2,5,5-tetramethyl-1-pyrrolidine-N-oxyl] | 0.0551 ± 0.0059 | 0.0669 ± 0.0144* min^−1 | 0.0356 ± 0.0122 | 0.0468 ± 0.0086 | 0.0766 ± 0.0070 | 0.1073 ± 0.0057* min^−1 | 0.171 | 0.17 | – | – | – | – | – | –
CC1(C)CC(C(=O)O)C(C)(C)N1[O] (stereo not drawn) [Carboxy-PROXYL] | – | – | – | – | – | – | 0.180 | – | – | – | – | – | – | –
CC1(C)CC(O)CC(C)(C)N1[O] [Tempol, 2,2,6,6-tetramethyl-4-piperidinol-N-oxyl] | – | – | – | – | – | – | – | – | 1.025 ± 0.213 | 1.470 ± 0.199 | 0.319 ± 0.025 | 1.160 ± 0.333 | 1.095 ± 0.203** min^−1 | greater in tumor versus normal tissue
